From ChEMBL document CHEMBL1138746, “Indolebutylamines as selective 5-HT(1A) agonists” (J Med Chem, 2004) come the findings set out here.

As usually defined, the IC50 is the concentration that inhibits the measured activity by half. Read a high IC50 as weaker potency.

Assay [1] is described as follows: Inhibition of hydroxytryptamine 2C receptor.
The target in assay [2] is T1, Adrenergic receptor alpha-2 (Homo sapiens, UniProt P08913+P18825+P18089).
T1 sequence (P08913 whole entry): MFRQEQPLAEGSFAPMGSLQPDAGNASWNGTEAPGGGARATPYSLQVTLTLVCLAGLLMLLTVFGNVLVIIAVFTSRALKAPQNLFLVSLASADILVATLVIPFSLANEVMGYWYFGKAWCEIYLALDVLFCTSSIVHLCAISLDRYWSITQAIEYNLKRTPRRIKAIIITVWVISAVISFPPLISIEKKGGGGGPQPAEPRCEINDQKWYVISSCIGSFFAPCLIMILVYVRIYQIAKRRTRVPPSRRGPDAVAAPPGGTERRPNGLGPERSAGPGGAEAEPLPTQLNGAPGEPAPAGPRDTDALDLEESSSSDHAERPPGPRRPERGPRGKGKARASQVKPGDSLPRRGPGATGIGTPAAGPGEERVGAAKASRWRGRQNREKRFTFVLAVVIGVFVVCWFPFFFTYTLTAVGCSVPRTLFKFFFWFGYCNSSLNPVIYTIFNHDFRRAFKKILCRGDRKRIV
T1 sequence (P18825 whole entry): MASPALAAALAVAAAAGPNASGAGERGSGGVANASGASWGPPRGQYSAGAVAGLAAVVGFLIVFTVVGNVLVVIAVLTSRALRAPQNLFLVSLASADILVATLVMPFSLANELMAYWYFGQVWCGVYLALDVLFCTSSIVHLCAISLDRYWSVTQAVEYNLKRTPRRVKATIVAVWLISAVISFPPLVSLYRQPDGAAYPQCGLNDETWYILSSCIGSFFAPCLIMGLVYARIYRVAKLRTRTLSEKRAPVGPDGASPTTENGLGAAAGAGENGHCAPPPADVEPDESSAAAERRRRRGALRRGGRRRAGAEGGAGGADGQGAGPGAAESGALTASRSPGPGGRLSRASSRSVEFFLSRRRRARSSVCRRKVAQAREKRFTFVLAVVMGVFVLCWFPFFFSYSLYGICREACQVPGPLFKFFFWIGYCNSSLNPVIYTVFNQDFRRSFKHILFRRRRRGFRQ
T1 sequence (P18089 whole entry): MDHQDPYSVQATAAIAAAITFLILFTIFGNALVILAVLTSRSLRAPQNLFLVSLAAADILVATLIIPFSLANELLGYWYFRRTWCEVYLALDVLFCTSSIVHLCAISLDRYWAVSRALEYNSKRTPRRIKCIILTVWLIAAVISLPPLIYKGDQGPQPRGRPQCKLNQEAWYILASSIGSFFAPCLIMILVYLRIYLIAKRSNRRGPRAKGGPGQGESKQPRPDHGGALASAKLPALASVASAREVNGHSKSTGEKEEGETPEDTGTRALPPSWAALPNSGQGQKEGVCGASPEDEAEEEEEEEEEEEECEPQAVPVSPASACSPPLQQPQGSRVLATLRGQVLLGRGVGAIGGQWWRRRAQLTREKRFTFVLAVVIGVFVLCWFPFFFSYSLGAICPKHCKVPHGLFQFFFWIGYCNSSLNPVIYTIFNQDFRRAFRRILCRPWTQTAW
The assay can be described thus: Inhibition of Alpha-2 adrenergic receptor. The assay is classed as protein assay.

Assay [3] deals with D(3) dopamine receptor (Homo sapiens, UniProt P35462). The assay can be described thus: Inhibition of dopamine D3 receptor.
Chain of D(3) dopamine receptor (P35462 whole entry): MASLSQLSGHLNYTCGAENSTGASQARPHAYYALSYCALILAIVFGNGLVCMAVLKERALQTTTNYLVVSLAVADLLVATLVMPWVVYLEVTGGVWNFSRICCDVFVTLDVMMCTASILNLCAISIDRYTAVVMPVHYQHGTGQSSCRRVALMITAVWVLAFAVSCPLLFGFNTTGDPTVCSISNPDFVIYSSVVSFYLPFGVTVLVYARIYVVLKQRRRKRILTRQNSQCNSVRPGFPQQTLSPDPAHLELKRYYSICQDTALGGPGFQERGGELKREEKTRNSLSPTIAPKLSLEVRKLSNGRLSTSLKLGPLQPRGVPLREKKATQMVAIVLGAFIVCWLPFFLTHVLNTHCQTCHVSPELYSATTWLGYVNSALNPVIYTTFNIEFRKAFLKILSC
The target in assay [4] is T2, D(4) dopamine receptor (Homo sapiens, UniProt P21917).
T2 sequence (P21917 whole entry): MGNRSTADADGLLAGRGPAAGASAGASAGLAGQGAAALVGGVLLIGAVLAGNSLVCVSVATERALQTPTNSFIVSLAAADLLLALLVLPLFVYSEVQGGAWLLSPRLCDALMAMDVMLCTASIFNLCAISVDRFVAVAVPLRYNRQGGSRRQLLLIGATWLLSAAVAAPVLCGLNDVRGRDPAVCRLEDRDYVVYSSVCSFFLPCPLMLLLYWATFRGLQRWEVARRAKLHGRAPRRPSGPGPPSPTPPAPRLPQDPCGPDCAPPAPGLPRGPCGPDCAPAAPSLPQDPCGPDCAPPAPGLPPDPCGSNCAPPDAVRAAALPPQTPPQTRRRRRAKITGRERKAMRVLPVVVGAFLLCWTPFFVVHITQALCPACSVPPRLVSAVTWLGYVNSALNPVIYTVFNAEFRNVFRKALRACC
The assay can be described thus: Inhibition of dopamine D4 receptor.

The nature of assay [5]: Inhibition of Histamine H1 receptor.
Assay [6] can be described thus: Inhibition of hydroxytryptamine 2A receptor.
The target in assay [7] is T3, 5-hydroxytryptamine receptor 1A (Rattus norvegicus, UniProt P19327).
T3 sequence (P19327 whole entry): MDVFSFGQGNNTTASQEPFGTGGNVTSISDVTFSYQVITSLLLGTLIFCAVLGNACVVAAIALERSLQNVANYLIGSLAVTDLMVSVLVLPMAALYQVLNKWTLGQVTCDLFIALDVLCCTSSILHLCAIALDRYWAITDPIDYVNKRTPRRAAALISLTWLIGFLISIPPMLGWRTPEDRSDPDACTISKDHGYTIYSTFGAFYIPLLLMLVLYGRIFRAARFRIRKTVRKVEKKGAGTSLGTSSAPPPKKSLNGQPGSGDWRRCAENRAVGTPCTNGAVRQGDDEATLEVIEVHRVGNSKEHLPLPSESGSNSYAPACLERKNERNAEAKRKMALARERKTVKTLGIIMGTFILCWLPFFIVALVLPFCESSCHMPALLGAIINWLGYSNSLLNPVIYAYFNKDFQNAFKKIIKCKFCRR
The assay can be described thus: Inhibition of 8-OH DPAT bindign to rat hydroxytryptamine 1A receptor in hippocampal membranes.

With `O=C1c2ccccc2S(=O)(=O)N1CCCCN1CCN(c2ncccn2)CC1` [IPSAPIRONE], the IC50 is over 1000 nM in assay [1]; 1000 nM in assay [2]; 1200 nM in assay [3]; 1800 nM in assay [4]; 24 nM in assay [5]; 2600 nM in assay [6]. For the same compound, the IC50 in assay [7] turned out to be 8.2 nM.
